Assay results from patent publication US20260297042A1, “BIARYLAMIDE DERIVATIVES AND THEIR USE AS PKMYT1 INHIBITORS” (CANCER RESEARCH TECHNOLOGY LIMITED, priority 2023, published 2026).
Counter-ions that a name gives are not always drawn.

Columns and labels:
[1] = molecular target: T1, Human PKMYT1 (Homo sapiens, UniProt Q99640); assay: PKMYT1 biochemical ADP-Glo enzymatic assay; conditions: PKMYT1 kinase domain 15 nM; ADP-Glo; banded values
T1 construct: Human PKMYT1 75-362 was cloned as a TEV cleavable 6xHis fusion; 6xHis (TEV cleavable) (cleaved yes); made in house; host or cells: bacterial cells
T1 sequence (Q99640 75-362): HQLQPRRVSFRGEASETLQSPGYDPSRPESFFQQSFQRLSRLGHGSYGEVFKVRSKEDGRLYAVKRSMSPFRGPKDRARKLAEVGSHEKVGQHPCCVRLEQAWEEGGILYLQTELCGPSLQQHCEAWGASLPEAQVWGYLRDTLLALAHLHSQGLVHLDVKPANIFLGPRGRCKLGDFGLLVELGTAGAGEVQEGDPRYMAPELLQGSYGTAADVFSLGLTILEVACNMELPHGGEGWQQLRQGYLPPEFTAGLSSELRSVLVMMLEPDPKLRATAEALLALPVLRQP
Procedure, shortened: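 Compounds were titrated over 10 points (3-fold steps), then 15 nM purified PKMYT1 kinase domain (aa 75-362) and 500 µM ATP were added in pH 7.5 HEPES buffer. After 60 min at 26 °C, remaining ATP was depleted and ADP converted to luminescence for IC50 fitting.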

[2] = molecular target: T2, WEE1 (Homo sapiens, UniProt P30291); assay: Selectivity versus WEE1 assay (ADP-Glo enzymatic assay); assay type: biochemical; conditions: for IC50: WEE1 15 nM, ADP-Glo, banded values; for PKMYT1 vs. WEE1 selectivity: fold difference in selectivity for PKMYT1 over WEE1, banded
T2 construct: purchased Thermo Fisher PR7373A
Procedure, shortened: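 Compounds were pre-dispensed, enzyme (15 nM final) was added in pH 7.5 HEPES buffer, and ATP ([…]) then started a 60 min incubation at 26° C. Afterwards ADP-Glo reagents were added in turn and luminescence was measured to derive IC50 values.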

T2 sequence (P30291 whole entry): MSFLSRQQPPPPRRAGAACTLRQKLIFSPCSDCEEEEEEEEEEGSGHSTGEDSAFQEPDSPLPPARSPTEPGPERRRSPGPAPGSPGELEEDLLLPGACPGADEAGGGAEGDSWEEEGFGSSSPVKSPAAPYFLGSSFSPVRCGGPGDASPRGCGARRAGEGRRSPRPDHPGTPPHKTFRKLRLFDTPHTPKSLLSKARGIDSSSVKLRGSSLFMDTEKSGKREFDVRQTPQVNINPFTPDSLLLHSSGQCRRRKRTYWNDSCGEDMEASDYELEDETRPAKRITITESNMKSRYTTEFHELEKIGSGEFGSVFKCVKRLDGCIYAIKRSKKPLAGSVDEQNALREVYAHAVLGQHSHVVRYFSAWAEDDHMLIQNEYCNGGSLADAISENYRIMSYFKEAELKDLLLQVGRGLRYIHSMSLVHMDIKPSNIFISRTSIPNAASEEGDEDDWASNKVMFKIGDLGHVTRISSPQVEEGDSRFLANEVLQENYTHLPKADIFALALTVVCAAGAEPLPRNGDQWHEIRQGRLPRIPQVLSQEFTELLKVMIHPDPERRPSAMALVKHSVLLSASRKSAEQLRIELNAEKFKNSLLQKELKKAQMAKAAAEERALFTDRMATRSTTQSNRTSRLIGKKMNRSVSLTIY

IC50 [1] [µM] | IC50 [2] [µM] | PKMYT1 vs. WEE1 selectivity [2] | Structure (SMILES)
< 0.05 | 1 to 11 | X (100-<1000 fold) | CCN(CCO)C(=O)Cn1cc(C)c(Nc2ncc(C(=O)Nc3c(C)ccc(O)c3C)s2)n1 [BAA-535, 2-((1-(2-(Ethyl(2-hydroxyethyl)amino)-2-oxoethyl)-4-methyl-1H-pyrazol-3-yl)amino)-N-(3-hydroxy-2,6-dimethylphenyl)thiazole-5-carboxamide]
0.05 to 1 | 1 to 11 | X (100-<1000 fold) | Cc1ccc(O)c(C)c1NC(=O)c1cnc(Nc2cnn(C)c2)s1 [BAA-536, N-(3-hydroxy-2,6-dimethylphenyl)-2-((1-methyl-1H-pyrazol-4-yl)amino)thiazole-5-carboxamide hydrochloride]
0.05 to 1 | 1 to 11 | W (10-<100 fold) | Cc1ccc(O)c(C)c1NC(=O)c1cnc(Nc2cc(C(=O)N3CCOCC3)n(C)n2)s1 [BAA-537, N-(3-hydroxy-2,6-dimethylphenyl)-2-((1-methyl-5-(morpholine-4-carbonyl)-1H-pyrazol-3-yl)amino)thiazole-5-carboxamide]
< 0.05 | 1 to 11 | X (100-<1000 fold) | COC1CCN(C(=O)Cn2cc(C)c(Nc3ncc(C(=O)Nc4c(C)ccc(O)c4C)s3)n2)C1 (stereo not drawn) [BAA-538, N-(3-hydroxy-2,6-dimethylphenyl)-2-((1-(2-(3-methoxypyrrolidin-1-yl)-2-oxoethyl)-4-methyl-1H-pyrazol-3-yl)amino)thiazole-5-carboxamide]
0.05 to 1 | > 11 | X (100-<1000 fold) | CCOc1ccccc1Nc1ncc(C(=O)Nc2c(C)ccc(O)c2C)s1 [BAA-539, 2-((2-ethoxyphenyl)amino)-N-(3-hydroxy-2,6-dimethylphenyl)thiazole-5-carboxamide. TFA salt]
< 0.05 | 1 to 11 | X (100-<1000 fold) | Cc1ccc(O)c(C)c1NC(=O)c1cnc(Nc2cc(C)n(CC(C)O)n2)s1 (stereo not drawn) [BAA-540, N-(3-hydroxy-2,6-dimethylphenyl)-2-((1-(2-hydroxypropyl)-5-methyl-1H-pyrazol-3-yl)amino)thiazole-5-carboxamide]
< 0.05 | > 11 | X (100-<1000 fold) | COCCN(CCOC)C(=O)Cn1cc(C)c(Nc2ncc(C(=O)Nc3c(C)ccc(O)c3C)s2)n1 [BAA-542, 2-((1-(2-(bis(2-methoxyethyl)amino)-2-oxoethyl)-4-methyl-1H-pyrazol-3-yl)amino)-N-(3-hydroxy-2,6-dimethyl-phenyl)thiazole-5-carboxamide]
0.05 to 1 | 1 to 11 | W (10-<100 fold) | Cc1ccc(O)c(C)c1NC(=O)c1cnc(Nc2cc(C(=O)N3CCCC3)n(C)n2)s1 [BAA-544, N-(3-hydroxy-2,6-dimethylphenyl)-2-((1-methyl-5-(pyrrolidine-1-carbonyl)-1H-pyrazol-3-yl)amino)thiazole-5-carboxamide]
0.05 to 1 | 1 to 11 | W (10-<100 fold) | CCN(CC)C(=O)c1cc(Nc2ncc(C(=O)Nc3c(C)ccc(O)c3C)s2)nn1C [BAA-545, 2-((5-(diethylcarbamoyl)-1-methyl-1H-pyrazol-3-yl)amino)-N-(3-hydroxy-2,6-dimethylphenyl)thiazole-5-carboxamide]
0.05 to 1 | > 11 | X (100-<1000 fold) | Cc1ccc(O)c(C)c1NC(=O)c1cnc(Nc2cn(C)nc2C(F)(F)F)s1 [BAA-548, N-(3-hydroxy-2,6-dimethylphenyl)-2-((1-methyl-3-(trifluoromethyl)-1H-pyrazol-4-yl)amino)thiazole-5-carboxamide]
0.05 to 1 | > 11 | X (100-<1000 fold) | Cc1ccc(O)c(C)c1NC(=O)c1cnc(Nc2nccn2C)s1 [BAA-552, N-(3-hydroxy-2,6-dimethylphenyl)-2-((1-methyl-1H-imidazol-2-yl)amino)thiazole-5-carboxamide]
< 0.05 | 1 to 11 | Y (1000-5000 fold) | CCN(CCS(C)(=O)=O)C(=O)Cn1cc(C)c(Nc2ncc(C(=O)Nc3c(C)ccc(O)c3C)s2)n1 [BAA-555, 2-((1-(2-(ethyl(2-(methylsulfonyl)ethyl)amino)-2-oxoethyl)-4-methyl-1H-pyrazol-3-yl)amino)-N-(3-hydroxy-2,6-dimethylphenyl)thiazole-5-carboxamide]
0.05 to 1 | > 11 | X (100-<1000 fold) | Cc1ccc(O)c(C)c1NC(=O)c1cnc(Nc2cnn(CC(=O)N3CCCC3)c2C)s1 [BAA-556, N-(3-hydroxy-2,6-dimethylphenyl)-2-((5-methyl-1-(2-oxo-2-(pyrrolidin-1-yl)ethyl)-1H-pyrazol-4-yl)amino)thiazole-5-carboxamide]
0.05 to 1 | > 11 | Y (1000-5000 fold) | Cc1ccc(O)c(C)c1NC(=O)c1cnc(Nc2cn(CC(=O)N3CCCC3)nc2C)s1 [BAA-558, N-(3-hydroxy-2,6-dimethylphenyl)-2-((3-methyl-1-(2-oxo-2-(pyrrolidin-1-yl)ethyl)-1H-pyrazol-4-yl)amino)thiazole-5-carboxamide]
< 0.05 | 1 to 11 | X (100-<1000 fold) | COc1cncnc1Nc1ncc(C(=O)Nc2c(C)ccc(O)c2C)s1 [BAA-559, N-(3-hydroxy-2,6-dimethylphenyl)-2-((5-methoxypyrimidin-4-yl)amino)thiazole-5-carboxamide]
< 0.05 | > 11 | Y (1000-5000 fold) | COc1c(Cl)ncnc1Nc1ncc(C(=O)Nc2c(C)ccc(O)c2C)s1 [BAA-562, 2-((6-chloro-5-methoxypyrimidin-4-yl)amino)-N-(3-hydroxy-2,6-dimethylphenyl)thiazole-5-carboxamide]
0.05 to 1 | 1 to 11 | W (10-<100 fold) | Cc1c(O)cc(Br)c(C)c1NC(=O)c1cnc(Nc2cc(C)n(C3CCS(=O)(=O)C3)n2)s1 (stereo not drawn) [BAA-563, N-(3-Bromo-5-hydroxy-2,6-dimethyl-phenyl)-2-[[1-(1,1-dioxothiolan-3-yl)-5-methyl-pyrazol-3-yl]amino]thiazole-5-carboxamide]
0.05 to 1 | 1 to 11 | W (10-<100 fold) | Cc1ccc(O)c(C)c1NC(=O)c1cnc(Nc2cc(C)n(C3CCS(=O)(=O)C3)n2)s1 (stereo not drawn) [BAA-564, 2-[[1-(1,1-Dioxothiolan-3-yl)-5-methyl-pyrazol-3-yl]amino]-N-(3-hydroxy-2,6-dimethyl-phenyl)thiazole-5-carboxamide]
< 0.05 | > 11 | Y (1000-5000 fold) | Cc1ccnc(Nc2ncc(C(=O)Nc3c(C)ccc(O)c3C)s2)n1 [BAA-567, N-(3-hydroxy-2,6-dimethylphenyl)-2-((4-methylpyrimidin-2-yl)amino)thiazole-5-carboxamide]
< 0.05 | > 11 | X (100-<1000 fold) | COc1cnc(Cl)nc1Nc1ncc(C(=O)Nc2c(C)ccc(O)c2C)s1 [BAA-568, 2-((2-chloro-5-methoxypyrimidin-4-yl)amino)-N-(3-hydroxy-2,6-dimethylphenyl)thiazole-5-carboxamide]
< 0.05 | > 11 | X (100-<1000 fold) | Cc1cncc(Nc2ncc(C(=O)Nc3c(C)ccc(O)c3C)s2)n1 [BAA-570, N-(3-hydroxy-2,6-dimethylphenyl)-2-((6-methylpyrazin-2-yl)amino)thiazole-5-carboxamide]
< 0.05 | > 11 | Y (1000-5000 fold) | CCn1cc(C#N)c(Nc2ncc(C(=O)Nc3c(C)ccc(O)c3C)s2)n1 [BAA-573, 2-((4-cyano-1-ethyl-1H-pyrazol-3-yl)amino)-N-(3-hydroxy-2,6-dimethylphenyl)thiazole-5-carboxamide]
< 0.05 | 0.05 to 1 | W (10-<100 fold) | Cc1ccc(O)c(C)c1NC(=O)c1cnc(Nc2cc(N3CCNCC3)ncn2)s1 [BAA-575, N-(3-Hydroxy-2,6-dimethylphenyl)-2-((6-(piperazin-1-yl)pyrimidin-4-yl)amino)thiazole-5-carboxamide]
< 0.05 | 1 to 11 | X (100-<1000 fold) | Cc1ccc(O)c(C)c1NC(=O)c1cnc(Nc2n[nH]cc2Br)s1 [BAA-579, 2-((4-Bromo-1H-pyrazol-3-yl)amino)-N-(3-hydroxy-2,6-dimethylphenyl)thiazole-5-carboxamide]
0.05 to 1 | > 11 | X (100-<1000 fold) | Cc1ccc(O)c(C)c1NC(=O)c1cnc(Nc2nccc3ccncc23)s1 [BAA-602, 2-((2,7-naphthyridin-1-yl)amino)-N-(3-hydroxy-2,6-dimethylphenyl)thiazole-5-carboxamide]
